The subject of one data set is NF-κB. The data set can be described thus: κB-Luc assay in RAW 264.7 macrophages. As to conditions: for κB-dependent luciferase expression: RAW 264.7 transfected with κB-Luc, IL-1 20 ng/ml, MPL 1 μg/ml, oligonucleotides 4 μM, normalized to untreated transfected cells. It is filed as cell-based, mouse. On the procedure: RAW 264.7 cells were seeded into 6-well plates (Corning) at a density of 3×10^5 cells per well 24 hours prior to transfection. Plasmids used in transfection were pNF-κB-Luc (Clontech) and pCR3. V64-Met-Flag-MyD88lpr (kindly provided by Jurgen Tschopp; described in (Burns et al., J. Biol. Chem., 1998, 273, 12203-9). Total plasmid DNA concentration was normalized across all wells by addition of empty vector (pCMVKm2, Chiron). Cells were transfected with stated concentrations of DNA in Opti-MEM I (Gibco BRL) with […] of LipofectAMINE (Gibco BRL) per well according to manufacturer's instructions. Cells were incubated with the transfection mixture 3 hours at 37° C., then culture media was replaced and cells were allowed to recover overnight. The following day transfected cells were treated in culture media at 37° C., 5% CO2 with phosphorothioate oligonucleotides, MPL, LPS, or cytokines at indicated concentrations and times. Cells were washed once with cold phosphate buffered saline (PBS), and lysed with Reporter Lysis BufferJ (Promega). Luciferase activity in lysate supematants was determined using Microlite 2 plates (Dynex) and a ML 3000 Luminometer (Dynatech) all according to manufacture's instructions. For detection of FLAG-MyD88lpr expression, the insoluble pellet from transfected RAW 264.7 cells was resuspended in Triton lysis buffer and sonicated 10 minutes prior to addition of sample buffer and boiling. After separation and transfer to nitrocellulose, membranes were immunoblotted using FLAG M2 (Sigma) antibody.
To directly evaluate κB-dependent transcription induced by CpG oligonucleotide or MPL treatment, RAW 264.7 macrophage were transfected with an NF-κB-inducible reporter plasmid encoding luciferase under the control of multiple copies of the kappa light chain enhancer (κB-Luc) and the following day treated with adjuvants or cytokines. In particular, RAW 264.7 cells were transfected with a kB-driven luciferase reporter gene and treated 24 hours later with IL-1 (20 ng/ml), MPL (1 μg/ml), LPS (1 μg/ml) or a phosphorothioate CpG oligonucleotide (4 μM) for 6 hours. Luciferase activity in cell lysates was quantified by luminometry, and results were normalized to the luciferase signal in untreated transfected cells.
The effects of CpG oligonucleotide on κB-dependent luciferase expression were dose- and time-dependent (see FIGS. 1B and 1C). In regard to FIG. 1B, RAW 264.7 cells transiently transfected with a κB-luciferase reporter plasmid were treated 24 hours later with concentrations of phosphorothioate CpG oligonucleotide concentrations ranging from 0.25-8 μM, or a control oligonucleotide (4 μM) for 6 hours. Activation was detected at CpG oligonucleotide concentrations as low as 0.25 μM (FIG. 1B), but not at the lowest concentration tested (0.05 μM) (data not shown). Data shown in FIG. 1B are average luciferase activity in lysates from duplicate wells normalized to luciferase levels in lysates from untreated transfected wells on the same 6-well tissue culture plate. […] In regard to FIG. 1C, RAW 264.7 cells transiently transfected with a kB-Luc and treated 24 hours later with a CpG-containing oligonucleotide (4 μM; open circles), or LPS (1 μg/ml; filled circles). Results shown in FIG. 1C are average of duplicate wells normalized to untreated transfected wells.

For data set [1], the system named is MyD88. The data set can be described thus: κB-Luc assay in RAW 264.7 cells co-transfected with dominant-negative MyD88lpr. It counts as cell-based, mouse. As to conditions: κB-Luc:MyD88lpr 10:1 or 1:1, oligonucleotides 4 μM, MPL 1 μg/ml, LPS 1 μg/ml.
Data set [2] has as its system CD86 expression on TLR4 mutant BMDDC. The experiment in a line: Flow cytometry of cell-surface CD86 on TLR4 mutant (C3H/HeJ) BMDDC. Conditions: overnight, oligonucleotide 5 μM, LPS 1 μg/ml, normalized to untreated. It is filed as cell-based, mouse. The method, then: (§1) Bone marrow was harvested from female mice 6-12 weeks old of various genotypes (C57Bl/6, Balb/c; Charles River; or C3H/HeJ, Jackson Labs). Bone marrow cells were used fresh or were frozen in fetal calf serum (FCS; Summit) containing 10% dimethylsulfoxide and stored at −80° C. Bone-marrow macrophages (BMMO) were prepared as described in Current Protocols in Immunology, supra. Briefly, fresh or frozen bone marrow cells were cultured in RPMI, 10% heat inactivated (30 minutes, 56° C.) fetal calf serum (FCS), 2 mM L-glutamine, 100 μg/ml streptomycin, 100 units/ml penicillin, 50 μM β-mercaptoethanol and 100 U/ml recombinant macrophage colony stimulating factor (M-CSF; R&D Systems). After 24 hours, nonadherent cells were removed to a new dish, and culture continued for 7 days to produce a macrophage monolayer. […]
(§2) BMDDC were treated overnight with adjuvants as indicated, washed, resuspended in cold PBS/2% FBS containing FcBlock (0.25 μg/10^6 cells; Pharmingen), and FITC- and PE-conjugated antibodies (1 μg/10^6 cells) were added 5 minutes later. Cells were incubate with antibodies on ice 30 minutes, washed, and analyzed by flow cytometry on a FACScan (Becton-Dickenson). […] Changes in CD86 expression are assessed based on geometric mean fluorescence of CD86-FITC staining of the live CD11c cells treated with adjuvants normalize to the geometric mean CD86-FITC fluorescence of untreated BMDDC cultures. […]
Background: Flow cytometry measures light scatter and fluorescence of single cells or particles in a stream.

Data set [3] relates to MAPK pathways, including ERK, JNK and p38. The data set can be described thus: Immunoblotting for MAPK pathway phosphorylation (ERK1/2, JNK/c-jun, p38 substrate ATF2). It is filed as cell-based, mouse. Conditions: BMMO, dendritic cells and RAW 264.7; within an hour of stimulation; oligonucleotides 1 μM; data not shown. The method, then:
as §1, with “monolayer. Nonadherent BMDDCs were produced by culture in the same medium supplemented with GM-CSF (200 U/ml; Preprotech) rather than M-CSF.” for “monolayer.”
Macrophages were differentiated from bone marrow cells of C57Bl/6 mice as described in Example 1 and then transferred to low serum medium lacking M-CSF for 4 hours. […] The positive result for ERK½ MAPK activation in RAW 264.7 cells and BMMO are in contrast to observations in another mouse macrophage cell line, J774, where ERK phosphorylation was not detected in CpG oligonucleotide-treated cells.
Background: In western blotting, separated proteins are transferred to a membrane and probed.

A further data set concerns IκBα. The data set can be described thus: Immunoblotting for phosphorylated and total IκBα in RAW 264.7 cells. It counts as cell-based, mouse. Conditions: 4 μM. On the procedure:
Following stimulation, BMMO or RAW 264.7 cells were lysed in 1% Triton X-100, 50 mM Tris, 62.5 mM EDTA (pH 8.0) with CompleteJ protease inhibitor cocktail (Boehringer Mannheim) (Triton lysis buffer). Lysates were boiled in reducing sample buffer, separated on 10% polyacrylamide gels using the NuPAGEJ Bis-Tris electrophoresis system (Novex). Nitrocellulose membranes were probed with antibodies against IκB-α, phosphorylated-IκB-α, (New England BioLabs), or anti-IL-18 (Santa Cruz Biotechnology) according to manufacturer's instructions, and visualized with enhanced chemiluminescence (Amersham).
Lysates were also prepared from untreated RAW 264.7 cells or cells treated with a phosphorothioate CpG oligonucleotide (4 μM) for 5, 10, 20 and 60 minutes as well as a control oligonucleotide lacking CpG motifs for 60 minutes. The lysates were then resolved by electrophoresis, and immunoblotted with antisera to phosphorylated IκBα and total IκBα. […] This activation was detected at the level of IκBα phosphorylation within 10 minutes of CpG oligonucleotide addition, and degradation of IκBα was notable at 20 minutes.

The test system of data set [4] is MyD88. The data set can be described thus: κB luciferase assay of NIH-3T3 cells transfected with MyD88 dominant-negative constructs. It is filed as cell-based, murine. As to conditions: FIG. 3A. The text has this: (§3) In another set of experiments, three MyD88 constructs lacking the ability to transduce signals were amplified by PCR, and placed under constitutive control of the CMV promoter (pCMV-FLAG vector, Sigma Aldrich). The first construct, MyD88lpr, contains a point mutation F56N in the death domain. The second construct, MyD88-ΔDD, lacks the death domain completely. The third construct, MyD88-THD, lacks both the death domain and the intermediate domain. The DNA was transfected into RAW 264.7 cells or murine embryonic NIH-3T3 cells using a cationic lipid reagent. A luciferase reporter plasmid was cotransfected. […] Cells were then stimulated with CpG oligonucleotides and several control cytokines. Luciferase expression was assayed on a luminometer to determine if the mutant MyD88 protein had affected CpG signaling. Restriction analysis and sequencing results confirmed the presence of the MyD88 constructs (data not shown). […] The MyD88 TIR domain alone was sufficient to block signaling.

Data set [5] deals with MyD88. The experiment in a line: κB luciferase assay of RAW 264.7 cells transfected with MyD88 dominant-negative constructs. It counts as cell-based, mouse. As to conditions: FIG. 3B.
Description: as §3

Another data set has as its system CD86 expression on BMDDC. The data set can be described thus: Flow cytometry of cell-surface CD86 on wild-type (Balb/c) BMDDC. It counts as cell-based, mouse. Conditions: overnight, oligonucleotides 5 μM, LPS 1 μg/ml, normalized to untreated. On the procedure:
as §1, §2

For another data set, the system named is ERK. As to conditions: J774 mouse macrophage cell line; cited from earlier work.

We go through 5 molecules from patent publication US20110306040A1, “CPG RECEPTOR (CPG-R) AND METHODS RELATING THERETO” (priority 1999, published 2011).

With monophosphoiyl lipid A [MPL], the κB-dependent luciferase expression entry in the data set with NF-κB (6 hours, LPS 1 μg/ml) was “potent activators of NF-κB”. Also, the “Effect of dominant-negative MyD88lpr expression on induced κB-dependent luciferase activity” value with MyD88 [1] is listed as “inhibited”. For the same molecule, the “Cell-surface CD86 expression on live CD11c positive cells” value (“Cell-surface CD86 expression” below) in [2] is reported as “no change in CD86 expression”.
In the case of “tccaggacttctctcaggtt (TCCAGGACTTCTCTCAGGTT; DNA, all phosphorothioate, methylation of C not given here) [control oligonucleotide]”, the “Phosphorylation of ERK, JNK and/or the JNK substrate c-jun, and of the p38 MAPK substrate ATF2” value in data set [3] is recorded as “not”. The κB-dependent luciferase expression result with NF-κB (6 hours, LPS 1 μg/ml) is “did not induce an increase”.
With “tccatgacgttcctgacgtt [CpG oligonucleotide]”, the “Phosphorylation of ERK, JNK and/or the JNK substrate c-jun, and of the p38 MAPK substrate ATF2” value in data set [3] was “observed in all three cell types”. Moreover, in the data set on IκBα, the “Time at which IκBα phosphorylation was detected after addition” value was not above 10 min and the “Time at which degradation of IκBα was notable” value came out at 20 min. The “κB-Luc activation at the lowest concentration tested” value in the data set on NF-κB (RAW 264.7, 0.05 μM, data not shown) is “not”. In addition, the “Activation of the reporter gene at 10 μM dose relative to 8 μM” value in the data set with NF-κB (RAW 264.7, 10 μM, data not shown) was “not further enhanced”. In the data set with NF-κB (RAW 264.7, 6 hours, FIG. 1B), the “Concentration of maximal activation of the reporter gene” value was determined as 8 µM and the “Lowest concentration at which κB-Luc activation was detected” value was 0.25 µM. The “Increase of κB-dependent luciferase expression by 2 hours” value with NF-κB (RAW 264.7, CpG oligonucleotide 4 μM, LPS 1 μg/ml, FIG. 1C) is recorded as “greater than two-fold increase”. Besides, in the data set on NF-κB (6 hours, LPS 1 μg/ml), the κB-dependent luciferase expression entry was “induced κB-dependent luciferase expression, to a level similar to that induced by MPL or LPS”. Also, the “Effect of dominant-negative MyD88lpr expression on induced κB-dependent luciferase activity” value in the data set on MyD88 [1] is reported as “inhibited”. In the data set on MyD88 [4], the “Effect of dominant negative MyD88 constructs (MyD88lpr, MyD88-ΔDD, MyD88-THD) on signaling to κB luciferase reporter” value was “specifically and selectively blocks signaling”. Further, the “Effect of dominant negative MyD88 constructs (MyD88lpr, MyD88-ΔDD, MyD88-THD) on signaling to κB luciferase reporter” value with MyD88 [5] is “specifically and selectively blocks signaling”. In addition, the “Cell-surface CD86 expression” value with CD86 expression on BMDDC is recorded as “increased cell-surface CD86 expression”. Besides, the “Cell-surface CD86 expression” value in data set [2] is “an increase in CD86 expression similar to that observed in the wild-type BMDDC”. In addition, the ERK phosphorylation result in the data set with ERK is “not detected”.

B1: IL-18: recombinant mouse interleukin-18 (Biosource) (protein, UniProt P70380 36-192, looked up)
Interleukin-18: NFGRLHCTTAVIRNINDQVLFVDKRQPVFEDMTDIDQSASEPQTRLIIYMYKDSEVRGLAVTLSVKDSKMSTLSCKNKIISFEEMDPPENIDDIQSDLIFFQKRVPGHNKMEFESSLYEGHFLACQKEDDAFKLILKKKDENGDKSVMFTLTNLHQS
On to B1, for which the κB-dependent luciferase expression entry with NF-κB (6 hours, LPS 1 μg/ml) is “poor activator”.

B2: IL-1: recombinant mouse interleukin-1β (Endogen) (protein, UniProt P10749 118-269, looked up)
Interleukin-1 beta: VPIRQLHYRLRDEQQKSLVLSDPYELKALHLNGQNINQQVIFSMSFVQGEPSNDKIPVALGLKGKNLYLSCVMKDGTPTLQLESVDPKQYPKKKMEKRFVFNKIEVKSKVEFESAEFPNWYISTSQAEHKPVFLGNNSGQDIIDFTMESVSS
Consider B2, for which, in the data set with NF-κB (6 hours, LPS 1 μg/ml), the κB-dependent luciferase expression entry is recorded as “poor activator”. Moreover, in the data set on MyD88 [4], the “Effect of dominant negative MyD88 constructs (MyD88lpr, MyD88-ΔDD, MyD88-THD) on signaling to κB luciferase reporter” value is on record as “did inhibit”.
